Holding throughout (type): binding
Assay [1] addresses T1, PCSK9 (Homo sapiens, UniProt Q8NBP7).
T1 construct: biotin (biotinylated); purchased
Briefly: PCSK9 Alexa FRET Plus TR-FRET assay. The settings on record: biotinylated PCSK9 0.5 nM, 960 nM AF cyclic peptide Reagent B; Ki calculated from IC50 and KD of AF peptide. How it is done:
(§1) The following is a description of the assays used to determine activity of compounds of the invention, and any comparator compounds reported, toward PCSK9 antagonism. Biotinylated PCSK9 was obtained commercially.
An Echo is used to transfer 0.075 ul of compound plus 0.675 ul of DMSO to each well of an assay plate followed by the addition of 15 ul of PCSK9+Stept-Eu and 15 ul of AF peptide. […] The reaction is incubated at room temperature for at least two hours prior to fluorescence measurements using an Envision Multilabel Reader. IC50 values are determined by fitting data to a sigmoidal dose-response curve using nonlinear regression. Ki is then calculated from the Ic50 and the KD of AF cyclic peptide. Counts (B-counts) of the europium-labeled PCSK9 are followed to observe if compounds are adversely affecting PCSK9. […] Data from this procedure is reported as “P=‘numerical value’ (nanomolar)”

Assay [2] concerns the target T1, PCSK9. Briefly: PCSK9 Alexa FRET Ultra TR-FRET assay. The settings on record: Ki Ultra; biotinylated PCSK9 0.5 nM, 960 nM AF cyclic peptide; Ki calculated from IC50 and KD of AF peptide; read-out: Alexa FRET Ultra TR-FRET. The protocol:
The following is a description of the assays used to determine activity of compounds of the invention, and any comparator compounds reported, toward PCSK9 antagonism. Biotinylated PCSK9 was obtained commercially. […] An Echo is used to transfer 0.015 ul of compound plus 0.735 ul of DMSO to each well of an assay plate followed by the addition of 15 ul of PCSK9+Stept-Eu and 15 ul of AF peptide. […] The reaction is incubated at room temperature for at least two hours prior to fluorescence measurements using an Envision Multilabel Reader. IC50 values are determined by fitting data to a sigmoidal dose-response curve using nonlinear regression. Ki is then calculated from the Ic50 and the KD of AF cyclic peptide. Counts (B-counts) of the europium-labeled PCSK9 are followed to observe if compounds are adversely affecting PCSK9. […] Data from this procedure is reported as “Ki Ultra=‘numerical value’ (data reported is nanomolar)”

The target in assay [3] is T1, PCSK9. Briefly: PCSK9 Alexa FRET Standard TR-FRET assay. The settings on record: biotinylated PCSK9 0.5 nM, 20 nM AF cyclic peptide Reagent A; Ki calculated from IC50 and KD of AF peptide; read-out: Alexa FRET Stdt TR-FRET. The protocol:
as §1
A separate solution containing 40 nM of the AlexaFluor tagged cyclic peptide is made in the same buffer system. An Echo is used to transfer 0.750 ul of compound to an assay plate followed by the addition of 15 ul of PCSK9+Stept-Eu and 15 ul of AF peptide. […] The reaction is incubated at room temperature for at least two hours prior to fluorescence measurements using an Envision Multilabel Reader. IC50 values are determined by fitting data to a sigmoidal dose-response curve using nonlinear regression. Ki is then calculated from the Ic50 and the KD of AF cyclic peptide. Counts (B-counts) of the europium-labeled PCSK9 are followed to observe if compounds are adversely PCSK9. A fall off of the B-counts likely indicates a false positive of inhibition. Data from this procedure is reported as “A=‘numerical value’ (nanomolar)”

T1 sequence (Q8NBP7 153-692): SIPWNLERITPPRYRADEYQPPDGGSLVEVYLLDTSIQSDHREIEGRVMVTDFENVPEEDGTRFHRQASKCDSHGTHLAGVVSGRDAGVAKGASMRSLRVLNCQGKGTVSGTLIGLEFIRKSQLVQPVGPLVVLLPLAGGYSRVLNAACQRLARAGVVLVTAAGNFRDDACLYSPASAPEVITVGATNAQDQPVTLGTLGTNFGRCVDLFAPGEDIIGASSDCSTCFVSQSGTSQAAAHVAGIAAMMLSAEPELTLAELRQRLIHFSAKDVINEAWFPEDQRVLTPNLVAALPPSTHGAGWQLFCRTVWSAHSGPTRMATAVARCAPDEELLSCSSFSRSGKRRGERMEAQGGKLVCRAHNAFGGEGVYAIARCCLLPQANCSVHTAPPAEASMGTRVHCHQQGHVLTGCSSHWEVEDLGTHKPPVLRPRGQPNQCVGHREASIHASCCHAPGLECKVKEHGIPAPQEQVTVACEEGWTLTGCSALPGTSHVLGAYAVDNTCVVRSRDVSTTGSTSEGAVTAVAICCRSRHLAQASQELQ

As for `COc1ccc(C[C@@H]2NC(=O)[C@H]([C@@H](C)O)NC(=O)[C@@H]3[C@@H]4CCN3C(=O)[C@@H]3Cc5cn(c6ccc(F)cc56)CCCCCCN(Cc5ccc(cc5)CCNC(=O)[C@]5(C)CCCN5C2=O)C(=O)CCOCCC(=O)N[C@H](CNC(=O)CCOCCOCC[N+](C)(C)CCNC(=O)COCCOCCNC(=O)COCCOCCNC(=O)CC[C@H](NC(=O)CC[C@H](NC(=O)CCCCCCCCCCCCCCC(=O)O)C(=O)O)C(=O)O)C(=O)N[C@@H](Cc2cccc(c2)CNC(=O)CO4)C(=O)N3)cc1` [Example 12], the Ki in assay [1] is under 6 pM; in assay [2], 2 pM; in assay [3] it was under 1260 pM.
